Results on two compounds are retold here after article PMC10831936 (iScience, 2024).

pEC50, pIC50: −log10 of the molar value. “Also recorded” adds a separate entry of the source.

One assay concerns the target ERBB4 (Homo sapiens, UniProt Q15303). Nature of the assay: Split TEV firefly luciferase assay, ERBB4. The format is cell-based. Conditions: PC12 cells; constant EGF-like domain 10 ng/mL; luciferase readout. As for the experimental part:
(§1) 50,000 PC12 cells were seeded per 96-well onto poly-L-lysin (PLL)-coated plates and transfected the following day (day in vitro 1, DIV1) with assay plasmids using Lipofectamine 3000 (Thermo Fisher Scientific). For split TEV assays, plasmids (pcDNA3 or pTag4C backbone) encoding receptor-NTEV-tcs-GV, GRB2-SH2-CTEV (for ERBB receptors) or ARBB2-1-383-CTEV (for HTR2A) (all 10 ng/well), and the p10xUAS-luc2 reporter plasmid (10 ng/well) were used. For pathway assays, the receptor plasmids (15 ng/well) and pathway reporter plasmids (15 ng/well) pEGR1p-luc2 for monitoring MAPK signaling, pCRE-CMVmin-luc2 for monitoring cAMP/Ca^2+ signaling, or p6xNFAT-CMVmin-luc2 for Ca^2+ signaling were used. Transient transfections were conducted according to the manufacturer’s instructions. On DIV2, cells were starved in medium containing 1% FCS for 16 h. […] In the case of antagonist assays, compounds were added at increasing doses together with the stimulus. Cells were lysed in 1x passive lysis buffer (Promega) and subjected to a firefly luciferase assay using a self-made substrate for firefly luciferase.[100] Luciferase activity was analyzed in a Mithras LB 940 Multimode Microplate Reader (Berthold Technologies). All assays were run in 96-well plates using six replicates per condition.

The subject of assay [1] is EGR1p (MAPK signaling), EGFR. Nature of the assay: EGR1p pathway sensor luciferase assay, EGFR. The conditions noted are these: Rattus norvegicus, PC-12; read-out: EGFR downstream MAPK signaling IC50, EGR1p sensor luciferase. The format is cell-based, Rattus norvegicus. As for the experimental part:
as §1

The subject of the next assay is EGR1p (ERBB4). Nature of the assay: EGR1p pathway sensor luciferase assay, ERBB4 transfected. The conditions noted are these: Rattus norvegicus, PC-12; PC12 cells; constant EGF-like domain 10 ng/mL; luciferase readout; read-out: ERBB4 downstream MAPK signaling IC50, EGR1p sensor luciferase. The class given is cell-based, Rattus norvegicus. As for the experimental part:
as §1

The subject of another assay is cAMP. Nature of the assay: GloSensor cAMP assay in PC12 cells. The class given is cell-based, Rattus norvegicus.
The next assay relates to calcium. Nature of the assay: Fluo-4 AM calcium assay in PC12 cells. The conditions noted are these: stimulation mix. The class given is cell-based, Rattus norvegicus.
A further assay concerns the target T1, phospho-ERBB4 (Homo sapiens, UniProt Q15303).
T1 construct: T-47D cells, which endogenously express ERBB4; host or cells: T-47D cells
Nature of the assay: Western blot of p-ERBB4 in T-47D cells. The class given is cell-based. Conditions: compound 1 h, EGFld 10 ng/mL 5 min, read-out: p-ERBB4 IC50, Western blot quantification. As for the experimental part: (§2) Phosphorylation levels of EGFR were assessed[37] in A549 cells, while phosphorylation levels of ERBB4 were assessed in T-47D cells. Before stimulation experiments were performed, both cell types were starved overnight in 1% FCS and compounds were incubated for 1 h. […] For lysis, cells were washed 1x with PBS and lysed in a Triton X- lysis buffer (1% Triton X-100, 50 mM Tris pH7.5, 150 mM NaCl, 1 mM EGTA) containing the Complete protease inhibitor cocktail (Roche) and PhosSTOP phosphatase inhibitor (Roche). Briefly, cells were lysed and kept on ice for 10 min, sonicated 3x for 10 s at 4°C, and denatured for 10 min at 70°C. The Mini-PROTEAN Tetra Electrophoresis System and Trans-Blot Turbo Botting System (both Bio-Rad) were used for running and blotting protein gels. […] Total EGFR and ERBB4 protein levels were determined using an anti-EGFR antibody (RRID: AB_10920395) (clone A-10, dilution 1:1000, sc-373746, Santa Cruz Biotechnology) and an anti-ERBB4 antibody (RRID: AB_731579) (clone E200, dilution 1:1000, ab32375, Abcam). […] Tubulin levels were determined using an anti-Tubulin antibody (RRID: AB_477579) (dilution 1:2000, No. T 5168, Sigma-Aldrich). For quantification, phosphorylation levels of p-EGFR relative to EGFR as well as p-ERBB4 relative to ERBB4 were calculated using the Lukemiller protocol (http://lukemiller.org/index.php/2010/11/analyzing-gels-and-western-blots-with-image-j/). […]
On the technique in general: Immunoblotting shows a protein as a band on a membrane.

A further assay concerns phospho-ERK1/2. Nature of the assay: Western blot of p-ERK1/2 in A549 cells (EGF stimulated). The format is cell-based. Conditions: Homo sapiens, read-out: p-ERK1/2 IC50 (EGFR), Western blot quantification. As for the experimental part: as §2
The next assay has as its target ERBB2/3 (Homo sapiens, UniProt P04626+P21860). Briefly: ERBBprofiler barcoded split TEV assay, ERBB2/3.
Another assay concerns EGFR EGR1p. Briefly: ERBBprofiler barcoded EGR1p pathway sensor, EGFR co-transfected. The conditions noted are these: Rattus norvegicus, PC-12, 6 h, read-out: EGFR EGR1p IC50.
The test system of the next assay is HTR2A NFAT. Briefly: ERBBprofiler barcoded NFAT pathway sensor, HTR2A co-transfected. Conditions: Rattus norvegicus, PC-12, 6 h, read-out: HTR2A NFAT IC50.
In a further assay the test system is ERBB4 EGR1p. Briefly: ERBBprofiler barcoded EGR1p pathway sensor, ERBB4 co-transfected. Conditions: Rattus norvegicus, PC-12, 6 h, read-out: ERBB4 EGR1p IC50.
For a further assay, the system named is HTR2A EGR1p. Nature of the assay: ERBBprofiler barcoded EGR1p pathway sensor, HTR2A co-transfected. The conditions noted are these: Rattus norvegicus, PC-12, 6 h, read-out: HTR2A EGR1p IC50.
The test system of the next assay is ERBB2/3 EGR1p. Nature of the assay: ERBBprofiler barcoded EGR1p pathway sensor, ERBB2/3 co-transfected. The conditions noted are these: Rattus norvegicus, PC-12, 6 h, read-out: ERBB2/3 EGR1p IC50.
Assay [2] relates to ERBB receptors, HTR2A, and downstream signaling pathways. Briefly: ERBBprofiler multiplexed barcoded assay, overall statements across all receptor batches and sensors. The conditions noted are these: 10 μM compound; PC12 cells; stimulation mix.

T1 sequence (Q15303 26-1308): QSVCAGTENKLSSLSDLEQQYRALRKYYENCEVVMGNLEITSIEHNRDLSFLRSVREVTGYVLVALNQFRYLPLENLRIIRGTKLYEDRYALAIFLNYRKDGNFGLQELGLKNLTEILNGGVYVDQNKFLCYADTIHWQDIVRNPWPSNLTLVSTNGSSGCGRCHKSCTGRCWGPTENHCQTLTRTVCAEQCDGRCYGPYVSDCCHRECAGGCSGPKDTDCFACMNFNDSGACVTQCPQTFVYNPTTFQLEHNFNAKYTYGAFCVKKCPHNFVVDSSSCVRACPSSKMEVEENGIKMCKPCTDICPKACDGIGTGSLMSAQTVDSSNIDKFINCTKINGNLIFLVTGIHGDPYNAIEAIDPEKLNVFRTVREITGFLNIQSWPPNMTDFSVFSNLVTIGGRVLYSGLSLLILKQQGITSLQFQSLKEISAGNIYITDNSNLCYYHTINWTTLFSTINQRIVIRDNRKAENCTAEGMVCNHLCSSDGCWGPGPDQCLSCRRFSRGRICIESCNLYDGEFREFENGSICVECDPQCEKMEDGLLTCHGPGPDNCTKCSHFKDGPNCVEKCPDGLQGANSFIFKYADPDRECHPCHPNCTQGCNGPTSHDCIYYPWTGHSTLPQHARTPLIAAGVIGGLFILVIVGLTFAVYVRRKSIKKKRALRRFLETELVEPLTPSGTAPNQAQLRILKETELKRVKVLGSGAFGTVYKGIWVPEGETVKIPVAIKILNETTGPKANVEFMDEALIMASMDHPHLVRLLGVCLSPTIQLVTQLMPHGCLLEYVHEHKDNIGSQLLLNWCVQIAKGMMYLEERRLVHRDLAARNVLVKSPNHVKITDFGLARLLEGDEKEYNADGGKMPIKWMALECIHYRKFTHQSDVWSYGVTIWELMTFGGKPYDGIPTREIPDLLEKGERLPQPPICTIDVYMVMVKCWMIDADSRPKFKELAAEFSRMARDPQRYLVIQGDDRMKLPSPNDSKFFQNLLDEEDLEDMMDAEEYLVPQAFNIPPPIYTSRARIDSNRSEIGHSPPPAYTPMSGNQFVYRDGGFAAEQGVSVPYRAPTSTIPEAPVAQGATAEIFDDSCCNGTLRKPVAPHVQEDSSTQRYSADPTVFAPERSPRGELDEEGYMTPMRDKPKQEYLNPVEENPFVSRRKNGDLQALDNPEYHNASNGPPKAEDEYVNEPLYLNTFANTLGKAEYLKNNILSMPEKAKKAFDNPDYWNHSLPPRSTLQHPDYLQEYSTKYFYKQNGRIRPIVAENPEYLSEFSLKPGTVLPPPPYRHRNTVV
ERBB4, sequence (Q15303 26-1308): as above
ERBB2/3, sequence (P04626 23-1255): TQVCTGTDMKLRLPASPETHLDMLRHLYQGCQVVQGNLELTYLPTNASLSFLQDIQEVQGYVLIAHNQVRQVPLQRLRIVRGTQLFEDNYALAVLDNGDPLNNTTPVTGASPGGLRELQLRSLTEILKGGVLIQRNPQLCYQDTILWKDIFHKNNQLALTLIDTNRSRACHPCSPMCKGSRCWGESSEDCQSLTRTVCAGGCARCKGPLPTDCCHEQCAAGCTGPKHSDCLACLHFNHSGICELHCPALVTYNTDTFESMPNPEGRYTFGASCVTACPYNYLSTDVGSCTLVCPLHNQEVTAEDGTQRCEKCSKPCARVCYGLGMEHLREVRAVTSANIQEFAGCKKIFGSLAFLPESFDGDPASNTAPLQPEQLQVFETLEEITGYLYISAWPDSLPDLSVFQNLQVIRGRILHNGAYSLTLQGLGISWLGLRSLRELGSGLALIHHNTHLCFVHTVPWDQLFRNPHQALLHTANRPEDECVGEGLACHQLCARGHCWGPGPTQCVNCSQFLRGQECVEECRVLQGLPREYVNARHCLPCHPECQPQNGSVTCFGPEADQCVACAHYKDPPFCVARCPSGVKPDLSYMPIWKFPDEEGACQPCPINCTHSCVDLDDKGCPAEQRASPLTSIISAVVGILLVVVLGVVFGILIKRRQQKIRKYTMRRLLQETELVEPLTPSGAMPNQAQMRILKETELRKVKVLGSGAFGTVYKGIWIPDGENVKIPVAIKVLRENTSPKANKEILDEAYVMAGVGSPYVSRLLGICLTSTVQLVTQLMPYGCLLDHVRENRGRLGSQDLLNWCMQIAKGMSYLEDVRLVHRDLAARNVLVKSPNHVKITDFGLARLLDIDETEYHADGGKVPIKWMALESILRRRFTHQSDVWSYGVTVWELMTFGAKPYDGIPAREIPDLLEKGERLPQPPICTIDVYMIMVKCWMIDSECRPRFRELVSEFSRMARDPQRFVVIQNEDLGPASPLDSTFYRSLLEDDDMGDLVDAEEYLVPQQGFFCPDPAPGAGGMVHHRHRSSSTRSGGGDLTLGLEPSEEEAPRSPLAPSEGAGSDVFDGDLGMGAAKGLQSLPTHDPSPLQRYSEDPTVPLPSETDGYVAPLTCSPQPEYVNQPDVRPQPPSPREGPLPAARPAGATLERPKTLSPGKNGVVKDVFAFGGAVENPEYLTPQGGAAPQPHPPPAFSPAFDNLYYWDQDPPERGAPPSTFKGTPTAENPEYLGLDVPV
ERBB2/3, sequence (P21860 20-1342): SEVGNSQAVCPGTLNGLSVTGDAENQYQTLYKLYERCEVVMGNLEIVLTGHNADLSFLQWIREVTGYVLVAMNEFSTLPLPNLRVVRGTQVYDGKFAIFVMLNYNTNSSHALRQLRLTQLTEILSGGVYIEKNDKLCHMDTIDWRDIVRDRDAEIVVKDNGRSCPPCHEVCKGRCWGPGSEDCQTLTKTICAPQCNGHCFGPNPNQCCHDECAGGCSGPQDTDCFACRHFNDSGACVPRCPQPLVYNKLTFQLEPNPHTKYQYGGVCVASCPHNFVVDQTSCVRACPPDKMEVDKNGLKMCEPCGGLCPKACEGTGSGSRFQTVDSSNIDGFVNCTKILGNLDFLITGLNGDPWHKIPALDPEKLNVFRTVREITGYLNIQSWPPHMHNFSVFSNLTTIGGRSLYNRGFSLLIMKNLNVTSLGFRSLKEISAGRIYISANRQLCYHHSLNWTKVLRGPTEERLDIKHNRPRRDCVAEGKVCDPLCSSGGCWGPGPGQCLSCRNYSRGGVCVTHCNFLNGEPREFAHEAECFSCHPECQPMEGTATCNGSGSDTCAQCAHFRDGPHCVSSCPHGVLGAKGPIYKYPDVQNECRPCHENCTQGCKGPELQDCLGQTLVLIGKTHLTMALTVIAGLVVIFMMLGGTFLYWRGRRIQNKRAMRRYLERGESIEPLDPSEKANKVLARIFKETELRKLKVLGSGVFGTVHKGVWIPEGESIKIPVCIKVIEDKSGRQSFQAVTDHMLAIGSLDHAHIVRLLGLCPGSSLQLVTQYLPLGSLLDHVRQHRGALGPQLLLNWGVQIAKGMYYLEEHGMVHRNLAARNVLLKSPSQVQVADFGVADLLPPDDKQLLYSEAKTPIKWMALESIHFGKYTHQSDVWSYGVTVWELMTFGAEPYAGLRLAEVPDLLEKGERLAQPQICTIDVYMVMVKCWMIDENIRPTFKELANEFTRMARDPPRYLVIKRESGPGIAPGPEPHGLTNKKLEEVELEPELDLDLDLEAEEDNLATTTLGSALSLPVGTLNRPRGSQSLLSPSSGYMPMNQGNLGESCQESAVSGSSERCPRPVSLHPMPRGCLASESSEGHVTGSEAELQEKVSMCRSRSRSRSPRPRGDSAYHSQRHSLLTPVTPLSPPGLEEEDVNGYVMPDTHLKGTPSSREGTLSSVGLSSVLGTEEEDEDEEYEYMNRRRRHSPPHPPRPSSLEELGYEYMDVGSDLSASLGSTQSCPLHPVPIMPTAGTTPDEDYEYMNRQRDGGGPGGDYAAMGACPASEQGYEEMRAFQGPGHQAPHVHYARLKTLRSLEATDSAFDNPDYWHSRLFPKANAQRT

What is called pEC50 is −log10 of the EC50, conventionally taken in molar units. Low values mean a high EC50, high ones a low EC50. With `CCOc1cc2ncc(C#N)c(Nc3ccc(OCc4ccccn4)c(Cl)c3)c2cc1NC(=O)/C=C/[C@H]1CCCN1C` [Pyrotinib], the pIC50 was 6.49 against ERBB4; 6.35 in assay [1]; 6.55 with EGR1p (ERBB4); 6.46 at phospho-ERBB4; 5.18 with phospho-ERK1/2; 7.04 against ERBB2/3. Also, the pIC50 in the assay with EGFR EGR1p was 6.58; with HTR2A NFAT, 6.24; in the assay on ERBB4 EGR1p, 6.95; with HTR2A EGR1p, 6.80; with ERBB2/3 EGR1p, 6.92. Moreover, the negative-log EC50 (pEC50) in the assay on cAMP (Rattus norvegicus, PC-12, 0.25 h, constant stimulation mix, 15 min, cAMP increase) is 5.72. In addition, the “compound concentration resulting in elevated cAMP (GloSensor)” value in the assay with cAMP (stimulation mix) is at least 3 µM. In addition, the “effect on calcium levels (Fluo-4 AM)” value in the assay with calcium was “but not calcium levels”. The “CRE sensor response at high compound concentration (barcoded)” value in assay [2] is given as “upregulation of the CRE sensor; also recorded: upregulated CRE sensor response”.
As to `COc1cc2ncnc(Nc3cccc(Cl)c3)c2cc1OC` [AG1478, AG-1478 (Tyrphostin AG-1478)], the pIC50 against ERBB4 is 6.59; in [1], 7.03; in the assay with EGR1p (ERBB4) it was 6.42; at phospho-ERBB4 it was 7.00; in the assay with phospho-ERK1/2 it was 7.04; at ERBB2/3 it was 6.69. The pIC50 in the assay on EGFR EGR1p was 7.64; in the assay with HTR2A NFAT, 7.19; in the assay with ERBB4 EGR1p, 7.33; in the assay on HTR2A EGR1p, 7.49; in the assay with ERBB2/3 EGR1p, 7.52. The “effect on cAMP levels (GloSensor)” value in the assay on cAMP is on record as “did not cause any increase”. For the same compound, the “effect on calcium levels (Fluo-4 AM)” value in the assay on calcium was “did not cause any increase”. The “CRE sensor response at high compound concentration (barcoded)” value in assay [2] is given as “did not cause any increased CRE sensor activities”.
